Reference: patent US7482008B1, “Human T cell reactive feline protein (TRFP) isolated from house dust and uses therefor” (Merck Patent GmbH, priority 1989, dated 2009)

Experiments:
[1] = test system: Balb/c mice; experiment: Oral rChain 1, antibody response ELISA, protocol 2; type: in vivo, mouse
Experimental: Four groups of five age-matched Balb/c 6- to 10-week-old female mice (The Jackson Laboratory, Bar Harbor, Me.) were fed on days −7, −5 and −2 with 250 μg cleaved, purified, recombinant TRFP Chain 1 (rChain) (Groups 1 and 3) or with PBS (Groups 2 and 4). On day 0, the mice in Groups 1 and 2 were challenged with an intraperitoneal (i.p.) injection of 10 μg rChain 1 in alum, while the mice in Groups 3 and 4 were challenged on day 0 with an i.p. injection of 100 μg rChain 1 in CFA. […]
Subsequent incubations were for 1 hour at 37° C. The wells were washed with PBS containing 0.05% Tween 20 and blocked with 0.5% gelatin in PBS. Sera were diluted in PBS as noted in the individual assay and were incubated in triplicate on the washed plates. After incubation and washing, the bound mouse antibody was detected by incubation with biotinylated goat anti-mouse IgG (Southern Biotechnology Ass.). […] 3,3′,5,5′-Tetramethylbenzidine peroxidase substrate (Kirkegaard & Perry Labs) was used according to directions supplied, and resulting OD (450 nm) values were determined using an ELISA reader (Bio-Tek model 310, Winooski, Vt.). […]
Antigen-bound IgE was detected similarly except using a biotinylated rat monoclonal antibody specific for mouse IgE (Baniyash et al. (1984) Eur. J. Immunol. 14:799-807). […]

[2] = test system: human IgE (cat allergic patient plasma); experiment: Dot blot assay of human IgE binding; settings: percent of cat allergic patients with positive IgE binding
Experimental: TRFP was coated at 2, 0.2 and 0.02 μg/dot and the peptides at 10, 1 and 0.1 μg/dot. Wells were then washed with 200 μl PBS. After equilibration of blots with Tween solution, (Tris-HCL; pH 7.5 0.025M NaCl 0.17 m Tween-20 0.5%) all sections were blocked with 1% nonfat dry milk, 1% fetal calf serun/Tween solution for 1-1.5 hour. Patient plasma was used at 10% (v/v) in 1% milt/Tween solution and preabsorbed on blank strips of nitrocellulose for 1 hour. After preabsorption, the diluted patient plasma sample was incubated with the antigen bearing dot blot overnight at room temperature (RT). Nitrocellulose dot blot was incubated in biotinylated goat anti-human IgE (1:2500) in Tween solution for 2 hours RT. After washing, the sections were incubated in 1 μCi ^125I-Streptavidin, 1 hour. Following removal of unbound label by extensive washing, the blots were exposed to film for 16 hours.

[3] = test system: B6CBAF1 mice; experiment: Oral induction of T cell non-responsiveness, protocol 1; type: in vivo, mouse; settings: fed on days -7, -5, -2
Experimental: The draining lymph nodes (i.e., inguinal, paraaortic and popliteal), the mesenteric lymph nodes, and the spleen were surgically removed from the animals 10-12 days after antigen challenge. Cells from these tissues were suspended by being forced through a stainless steel mesh with a glass pestle. The cells were washed twice in RPMI 1640 medium with a 1% fetal calf serum (FCS) before culture. All cells were cultured at 37° C. in 5% CO2 in RPMI 1640 with 10% FCS (no. F4884, Sigma), 100 units of penicillin G per ml, 10 μg of streptomycin per ml, 10 mM glutamine, and 0.05 mM 2-mercaptoethanol. […]. Cells were cultured in triplicate, 0.2 ml per well at 4×10^6 cells per ml, in 96-well plates. Supernatants were removed from the wells after 24 hours to test for the production of IL-2 or IL-3 and were frozen to kill any transferred cells or removed after 48 hours for testing IL-4 production. Separate triplicate wells were incubated for 96 hours for the proliferation assay. The supernatants were kept at […] for several days to kill transferred cells.
Lymph node of spleen cells were plated in a flat bottom 96-well plate (4×10^5/well) in 100 μl medium. Peptide or recombinant protein or control solution (100 μl) is added to each well and the cells allowed to incubate for 1 day at 37° C. On day 2, the cultures were pulsed with [^3H] thymidine (1 μCi per well in 50 μl of medium; 1 Ci=37 GBq) for 4 to 6 hours, and on day 3, the plates were harvested with a 96-well harvester (Tomtec, Orange, Conn.) and counted on a Betaplate scintillation counter (Pharmacia, Upsaala Sweden).
To measure IL-2, supernatants were tested after thawing for the ability to support the growth of an IL-2-dependent line such as CTLL-2 (University of California, Berkeley). […] After a 24 hour incubation, the cells were pulsed with [^3H] thymidine (1 μCi per well in 50 μl of medium; 1 Ci=37 GBq) for 4 to 6 hours and the plates were harvested with a 96-well harvester (Tomtec, Orange, Conn.) and counted on a Betaplate scintillation counter (Pharmacia, Upsaala Sweden).

## recombinant chain 1: recombinant TRFP chain 1 expressed in E. coli
[1]; 92 days after challenge, compared to PBS
  IgE binding to rChain 1: less IgE binding to rChain 1
[1]; oral administration, up to 100 days after treatment
  IgG response to rChain 1: depressed level of IgG response

## TRFP: human T cell reactive feline protein affinity purified from house dust; two covalently linked chains
[2]
  Positive Binding: 100%

## peptide Y: amino acid residues 29-55 from chain 1 of TRFP (SEQ. ID. NO: 18) (KALPVVLENARILKNCVDAKMTEEDKE)
[3]
  spleen cell IL-2 production: limited in their ability to produce IL-2
  spleen cell proliferation: no effect on spleen cell proliferation
[3]; challenge 100 μg in CFA
  proliferation of and production of IL-2 by draining and mesenteric lymph node cells: decreased
